This passage reports IC50 results from patent US20200405696A1, “INHIBITORS OF INDOLEAMINE 2,3-DIOXYGENASE AND/OR TRYPTOPHAN 2,3-DIOXYGENASE” (IDORSIA PHARMACEUTICALS LTD, priority 2018, published 2020).

Structures are written as SMILES.

The target in experiment [1] is T1, Recombinant full-length human IDO1 (Homo sapiens, UniProt P14902).
T1 construct: Recombinant full-length human IDO1 with a N-terminal hexahistidine tag; hexahistidine (His6) (N); made in house; host or cells: E. coli
In words: IDO1 enzymatic assay (NFK quantified by LCMS). The experiment is classed as biochemical. To be noted: 2 nM enzyme, 5 μM L-tryptophan, pH6.5, 30 minutes pre-incubation at RT; mean values when measured multiple times; read-out: hIDO activity (IC50 in nM). Put shortly:
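His-tagged human IDO1 (2 nM) in pH 6.5 phosphate buffer with ascorbate, methylene blue and catalase was preincubated with compound (10 μM–0.5 nM, 0.6% DMSO) for 30 min at RT. The reaction then ran with 5 μM L-Trp for 30 min. NFK was measured by LCMS against a d5-Trp standard, and IC50 was obtained by four-parameter fit.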

Experiment [2] concerns the target T2, Recombinant human TDO comprising amino acids 19-407 (Homo sapiens, UniProt P48775).
T2 construct: Recombinant human TDO comprising amino acids 19-407 with a N-terminal hexahistidine tag; hexahistidine (His6) (N); made in house; host or cells: E. coli
Description: TDO2 enzymatic assay (NFK quantified by LCMS). The class given is biochemical. To be noted: 15 nM enzyme, 200 μM L-tryptophan, pH7, 30 minutes pre-incubation at RT; mean values when measured multiple times; read-out: hTDO activity (IC50 in nM). In a few lines: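 NFK formed over 30 min at RT from 200 μM L-tryptophan was measured by LCMS, normalized to d5-tryptophan, after compound (0.5 nM–10 μM, duplicates, 0.6% DMSO) was preincubated 30 min with 15 nM recombinant His-tagged TDO 19-407 in phosphate buffer pH 7. IC50 from four-parameter logistic fit; repeats averaged.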

T1 sequence (P14902 whole entry): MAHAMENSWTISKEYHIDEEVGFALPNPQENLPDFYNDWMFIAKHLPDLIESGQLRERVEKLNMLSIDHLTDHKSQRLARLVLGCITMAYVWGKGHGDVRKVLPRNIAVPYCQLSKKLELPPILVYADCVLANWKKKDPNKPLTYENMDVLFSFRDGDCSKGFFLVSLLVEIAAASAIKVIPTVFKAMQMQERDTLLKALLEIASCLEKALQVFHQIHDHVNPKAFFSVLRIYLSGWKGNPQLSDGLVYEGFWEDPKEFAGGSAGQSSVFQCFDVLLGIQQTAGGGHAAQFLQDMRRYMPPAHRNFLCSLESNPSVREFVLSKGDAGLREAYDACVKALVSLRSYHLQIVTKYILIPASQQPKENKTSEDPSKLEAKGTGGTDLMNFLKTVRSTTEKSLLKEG
T2 sequence (P48775 19-406 limits assumed): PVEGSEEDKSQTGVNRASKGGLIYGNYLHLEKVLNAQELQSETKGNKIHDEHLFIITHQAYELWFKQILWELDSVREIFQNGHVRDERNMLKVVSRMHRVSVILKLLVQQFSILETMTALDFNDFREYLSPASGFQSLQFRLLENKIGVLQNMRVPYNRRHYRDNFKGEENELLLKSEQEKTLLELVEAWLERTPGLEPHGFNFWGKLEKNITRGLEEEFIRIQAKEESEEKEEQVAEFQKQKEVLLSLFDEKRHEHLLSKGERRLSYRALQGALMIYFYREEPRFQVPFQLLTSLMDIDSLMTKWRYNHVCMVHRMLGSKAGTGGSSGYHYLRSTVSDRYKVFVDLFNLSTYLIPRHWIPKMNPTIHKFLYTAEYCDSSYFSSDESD

For orientation: IC50 means the concentration at which inhibition is half-maximal. For `COc1ccc(-n2cc(C(O)c3c(-c4cccc(F)c4)sc4cncn34)nn2)cc1` (racemic) [Example 64, rac-[2-(3-Fluoro-phenyl)-imidazo[5,1-b]thiazol-3-yl]-[1-(4-methoxy-phenyl)-1H-[1,2,3]triazol-4-yl]-methanol], the IC50 was 177 nM in experiment [1] and more than 10200 nM in experiment [2].

On to `CCOc1ccc(-n2nnc(C(O)c3c(C4CC4)sc4cncn34)c2C)cc1Cl` (racemic) [Example 296, rac-[1-(3-Chloro-4-ethoxy-phenyl)-5-methyl-1H-[1,2,3]triazol-4-yl]-(2-cyclopropyl-imidazo[5,1-b]thiazol-3-yl)-methanol], for which the IC50 in experiment [1] was 14.1 nM; in experiment [2], more than 10200 nM.

Turning to `OC(c1cn(-c2cccc3cnccc23)nn1)c1c(C2CC2)sc2cncn12` (racemic) [Example 23, rac-(2-Cyclopropyl-imidazo[5,1-b]thiazol-3-yl)-(1-isoquinolin-5-yl-1H-[1,2,3]triazol-4-yl)-methanol], the IC50 is 24 nM in experiment [1] and more than 10200 nM in experiment [2].

Consider `COCCNC(=O)c1ccc(-n2cc(C(O)c3c(C4CC4)sc4cncn34)nn2)cc1` (racemic) [Example 102, rac-4-{4-[(2-Cyclopropyl-imidazo[5,1-b]thiazol-3-yl)-hydroxy-methyl]-[1,2,3]triazol-1-yl}-N-(2-methoxy-ethyl)-benzamide], for which the IC50 is 23.2 nM in experiment [1] and more than 10200 nM in experiment [2].

With `COc1cc(-n2cc(C(O)c3c(C4CC4)sc4cncn34)nn2)c(OC)nn1` (racemic) [Example 86, rac-(2-Cyclopropyl-imidazo[5,1-b]thiazol-3-yl)-[1-(3,6-dimethoxy-pyridazin-4-yl)-1H-[1,2,3]triazol-4-yl]-methanol], the IC50 was 23.1 nM in experiment [1] and more than 10200 nM in experiment [2].

On to `OC(c1cn(-c2ccc(OCCOCC(F)(F)F)cc2)nn1)c1c(C2CC2)sc2cncn12` (racemic) [Example 312, rac-(2-Cyclopropyl-imidazo[5,1-b]thiazol-3-yl)-(1-{4-[2-(2,2,2-trifluoro-ethoxy)-ethoxy]-phenyl}-1H-[1,2,3]triazol-4-yl)-methanol], for which the IC50 is 29.4 nM in experiment [1] and more than 10200 nM in experiment [2].

`OC(c1nnc(-c2ccccc2)o1)c1c(C2CC2)sc2cncn12` (racemic) [Example 157, rac-(2-Cyclopropyl-imidazo[5,1-b]thiazol-3-yl)-(5-phenyl-[1,3,4]oxadiazol-2-yl)-methanol]: the figures for the IC50 in experiment [1] and in experiment [2] were 586 nM and more than 10200 nM, respectively.

As for `CC(=O)c1ccc(-n2cc(C(O)c3c(C4CC4)sc4cncn34)nn2)cc1` (racemic) [Example 10, rac-1-(4-{4-[(2-Cyclopropyl-imidazo[5,1-b]thiazol-3-yl)-hydroxy-methyl]-[1,2,3]triazol-1-yl}-phenyl)-ethanone], the results for the IC50 in experiment [1] and in experiment [2] were 18.4 nM and more than 10200 nM, respectively.

In the case of `OC(c1cn(-c2ccc(CN3CCOCC3)cc2)nn1)c1c(C2CC2)sc2cncn12` (racemic) [Example 37, rac-(2-Cyclopropyl-imidazo[5,1-b]thiazol-3-yl)-[1-(4-morpholin-4-ylmethyl-phenyl)-1H-[1,2,3]triazol-4-yl]-methanol], the results for the IC50 in experiment [1] and in experiment [2] were 175 nM and more than 10200 nM, respectively.

For the compound `COc1ccc(-n2cc(C(O)c3c(C4CC4)sc4cncn34)nn2)cn1` (racemic) [Example 69, rac-(2-Cyclopropyl-imidazo[5,1-b]thiazol-3-yl)-[1-(6-methoxy-pyridin-3-yl)-1H-[1,2,3]triazol-4-yl]-methanol], the half-inhibitory concentration (IC50) is 22.7 nM in experiment [1] and more than 10200 nM in experiment [2].

`Cc1sc2cncn2c1C(O)c1cn(-c2ccc3[nH]ccc3c2)nn1` (racemic) [Example 59, rac-[1-(1H-Indol-5-yl)-1H-[1,2,3]triazol-4-yl]-(2-methyl-imidazo[5,1-b]thiazol-3-yl)-methanol]: the IC50 in experiment [1] is 50.4 nM; in experiment [2], 8400 nM.

For the compound `CC(C)Oc1ccc(-n2cc(C(O)c3c(C4CC4)sc4cncn34)nn2)cc1` (racemic) [Example 33, rac-(2-Cyclopropyl-imidazo[5,1-b]thiazol-3-yl)-[1-(4-isopropoxy-phenyl)-1H-[1,2,3]triazol-4-yl]-methanol], the IC50 in experiment [1] was 20 nM; in experiment [2], more than 10200 nM.

On to `OC(c1ccc(-c2cccnc2)s1)c1c(C2CC2)sc2cncn12` (racemic) [Example 160, rac-(2-Cyclopropyl-imidazo[5,1-b]thiazol-3-yl)-(5-pyridin-3-yl-thiophen-2-yl)-methanol], for which the IC50 is 230 nM in experiment [1] and 5320 nM in experiment [2].

Regarding `CCc1sc2cncn2c1C(O)c1cn(-c2ccc(NC(=O)C(C)(C)C)cc2)nn1` (racemic) [Example 120, rac-N-(4-{4-[(2-Ethyl-imidazo[5,1-b]thiazol-3-yl)-hydroxy-methyl]-[1,2,3]triazol-1-yl}-phenyl)-2,2-dimethyl-propionamide], the IC50 in experiment [1] was 11 nM; in experiment [2], more than 10200 nM.

In the case of `O=S(=O)(c1ccc(-n2cc(C(O)c3c(C4CC4)sc4cncn34)nn2)cc1)N1CCCC1` (racemic) [Example 237, rac-(2-Cyclopropyl-imidazo[5,1-b]thiazol-3-yl)-{1-[4-(pyrrolidine-1-sulfonyl)-phenyl]-1H-[1,2,3]triazol-4-yl}-methanol], the results for the half-maximal inhibitory concentration (IC50) in experiment [1] and in experiment [2] were 155 nM and more than 10200 nM, respectively.

As to `OC(c1cn(-c2ccc(OCc3ccccn3)cc2)nn1)c1c(C2CC2)sc2cncn12` (racemic) [Example 203, rac-(2-Cyclopropyl-imidazo[5,1-b]thiazol-3-yl)-{1-[4-(pyridin-2-ylmethoxy)-phenyl]-1H-[1,2,3]triazol-4-yl}-methanol], the IC50 in experiment [1] is 1350 nM; in experiment [2], more than 10200 nM.

As to `OC(c1cnn(-c2ccccc2)n1)c1c(C2CC2)sc2cncn12` (racemic) [Example 158, rac-(2-Cyclopropyl-imidazo[5,1-b]thiazol-3-yl)-(2-phenyl-2H-[1,2,3]triazol-4-yl)-methanol], the IC50 is 466 nM in experiment [1] and 5440 nM in experiment [2].

In the case of `OC(c1cn(-c2ccc(OCC3CC3)cc2)nn1)c1c(C2CC2)sc2cncn12` (racemic) [Example 35, rac-(2-Cyclopropyl-imidazo[5,1-b]thiazol-3-yl)-[1-(4-cyclopropylmethoxy-phenyl)-1H-[1,2,3]triazol-4-yl]-methanol], the IC50 in experiment [1] is 8.83 nM; in experiment [2], more than 10200 nM.

As for `CC(C)(C)C(=O)Nc1ccc(-n2cc(C(O)c3c(C4CC4)sc4cncn34)nn2)cc1` (racemic) [Example 187, rac-N-(4-{4-[(2-Cyclopropyl-imidazo[5,1-b]thiazol-3-yl)-hydroxy-methyl]-[1,2,3]triazol-1-yl}-phenyl)-2,2-dimethyl-propionamide], the 50% inhibitory concentration (IC50) was 13.7 nM in experiment [1] and more than 10200 nM in experiment [2].

Turning to `COc1cc(C#N)cc(-n2cc(C(O)c3c(C4CC4)sc4cncn34)nn2)c1` (racemic) [Example 197, rac-3-{4-[(2-Cyclopropyl-imidazo[5,1-b]thiazol-3-yl)-hydroxy-methyl]-[1,2,3]triazol-1-yl}-5-methoxy-benzonitrile], the IC50 in experiment [1] is 52.4 nM; in experiment [2], more than 10200 nM.

Take `COc1ccc(-n2cc(C(O)c3c(C4CC4)sc4cncn34)nn2)c(OC)n1` (racemic) [Example 81, rac-(2-Cyclopropyl-imidazo[5,1-b]thiazol-3-yl)-[1-(2,6-dimethoxy-pyridin-3-yl)-1H-[1,2,3]triazol-4-yl]-methanol]: the IC50 in experiment [1] was 36.1 nM; in experiment [2], more than 10200 nM.

As for `CC(C)(C)OC(=O)Nc1ccc(-n2cc(C(O)c3c(-c4ccccc4)sc4cncn34)nn2)cc1` (racemic) [Example 251, rac-(4-{4-[Hydroxy-(2-phenyl-imidazo[5,1-b]thiazol-3-yl)-methyl]-[1,2,3]triazol-1-yl}-phenyl)-carbamic acid tert-butyl ester], the IC50 in experiment [1] was 569 nM; in experiment [2], more than 10200 nM.

Consider `CC(F)(F)c1sc2cncn2c1C(O)c1cn(-c2ccc(OCC3(F)COC3)c(Cl)c2)nn1` (racemic) [Example 316, rac-{1-[3-Chloro-4-(3-fluoro-oxetan-3-ylmethoxy)-phenyl]-1H-[1,2,3]triazol-4-yl}-[2-(1,1-difluoro-ethyl)-imidazo[5,1-b]thiazol-3-yl]-methanol], for which the IC50 was 13 nM in experiment [1] and more than 10200 nM in experiment [2].

Regarding `COCc1ccc(-n2cc(C(O)c3c(C4CC4)sc4cncn34)nn2)cc1` (racemic) [Example 330, rac-(2-Cyclopropyl-imidazo[5,1-b]thiazol-3-yl)-[1-(4-methoxymethyl-phenyl)-1H-[1,2,3]triazol-4-yl]-methanol], the IC50 in experiment [1] was 31.6 nM; in experiment [2] it was more than 10200 nM.

For the compound `C=CCNC(=O)c1ccc(-n2cc(C(O)c3c(CC)sc4cncn34)nn2)cc1` (racemic) [Example 129, rac-N-Allyl-4-{4-[(2-ethyl-imidazo[5,1-b]thiazol-3-yl)-hydroxy-methyl]-[1,2,3]triazol-1-yl}-benzamide], the IC50 in experiment [1] amounted to 9.29 nM; in experiment [2], 9780 nM.

Take `OC(c1cn(-c2cccc(C(F)(F)F)c2)nn1)c1c(C2CC2)sc2cncn12` (racemic) [Example 5, rac-(2-Cyclopropyl-imidazo[5,1-b]thiazol-3-yl)-[1-(3-trifluoromethyl-phenyl)-1H-[1,2,3]triazol-4-yl]-methanol]: the IC50 was 74.2 nM in experiment [1] and more than 10200 nM in experiment [2].
